What was measured:
Experiment in all cases: relative viability (nuclei count vs DMSO), 5 days (fraction); higher = more cells survive
[1] = compound: C1CN(CCN1)C2=CC=C(C=C2)C3=CN4C(=C(C=N4)C5=CC=NC6=CC=CC=C56)N=C3 [DM3189] + C[C@@H](Oc1cc(-c2cnn(C3CCNCC3)c2)cnc1N)c1c(Cl)ccc(F)c1Cl [Crizotinib] (partner 1 µM)
How it was run: (§1)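 Each reported value is a median over duplicate plates. It expresses relative viability: treated-well nuclei count divided by vehicle-well nuclei count. Lung cancer cell lines in 1536-well plates were dosed by pin tool a day after seeding, alone with one drug or with a fixed anchor-drug dose plus five library-drug doses (not always all listed) in √10 steps, and nuclei were counted after 5 days.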

[2] = compound: C1CN(CCN1)C2=CC=C(C=C2)C3=CN4C(=C(C=N4)C5=CC=NC6=CC=CC=C56)N=C3 [DM3189] + C[C@]1(O)C[C@@H](c2nc(-c3ccc4ccc(-c5ccccc5)nc4c3)c3c(N)nccn32)C1 [Linsitinib] (partner 1 µM)
How it was run: as §1

[3] = compound: C1CN(CCN1)C2=CC=C(C=C2)C3=CN4C(=C(C=N4)C5=CC=NC6=CC=CC=C56)N=C3 [DM3189] + CC(=O)Nc1cccc(-n2c(=O)n(C3CC3)c(=O)c3c(Nc4ccc(I)cc4F)n(C)c(=O)c(C)c32)c1 [Trametinib] (partner 0.02 µM)
How it was run: as §1

[4] = compound: C1CN(CCN1)C2=CC=C(C=C2)C3=CN4C(=C(C=N4)C5=CC=NC6=CC=CC=C56)N=C3 [DM3189] + Nc1nc2[nH]cc(CCc3ccc(C(=O)N[C@@H](CCC(=O)O)C(=O)O)cc3)c2c(=O)[nH]1 [Pemetrexed] (partner 0.2 µM)
How it was run: as §1

[5] = compound: C1CN(CCN1)C2=CC=C(C=C2)C3=CN4C(=C(C=N4)C5=CC=NC6=CC=CC=C56)N=C3 [DM3189] + O=C(c1cc(Cc2n[nH]c(=O)c3ccccc23)ccc1F)N1CCN(C(=O)C2CC2)CC1 [Olaparib] (partner 8 µM)
How it was run: as §1

Cell Line | relative viability ([1]; first compound 0.08 µM) | relative viability ([1]; first compound 0.253 µM) | relative viability ([1]; first compound 0.8 µM) | relative viability ([1]; first compound 2.53 µM) | relative viability ([2]; first compound 0.08 µM) | relative viability ([2]; first compound 0.253 µM) | relative viability ([2]; first compound 0.8 µM) | relative viability ([2]; first compound 2.53 µM) | relative viability ([3]; first compound 0.08 µM) | relative viability ([3]; first compound 0.253 µM) | relative viability ([3]; first compound 0.8 µM) | relative viability ([3]; first compound 2.53 µM) | relative viability ([4]; first compound 0.08 µM) | relative viability ([4]; first compound 0.253 µM) | relative viability ([4]; first compound 0.8 µM) | relative viability ([4]; first compound 2.53 µM) | relative viability ([5]; first compound 0.08 µM) | relative viability ([5]; first compound 0.253 µM) | relative viability ([5]; first compound 0.8 µM) | relative viability ([5]; first compound 2.53 µM)
PC-3 [JPC-3] | 1.05 | 1.04 | 1.04 | 1.12 | 0.975 | 0.91 | 0.972 | 1.06 | 0.75 | 0.776 | 0.722 | 0.788 | 1.5 | 1.02 | 1.08 | 0.856 | 1.17 | 1.11 | 1.08 | 1.05
PC-14 | 0.807 | 0.914 | 0.791 | 0.862 | 1.03 | 0.953 | 0.903 | 0.879 | 0.732 | 0.877 | 0.635 | 0.849 | 0.142 | 0.125 | 0.14 | 0.122 | 0.277 | 0.238 | 0.264 | 0.226
RERF-LC-KJ | 0.887 | 0.812 | 0.863 | 0.885 | 0.932 | 0.879 | 0.861 | 0.978 | 1.03 | 0.95 | 0.927 | 0.986 | 0.461 | 0.471 | 0.469 | 0.559 | 0.942 | 0.889 | 0.823 | 0.833
SK-LU-1 | 0.714 | 0.868 | 0.676 | 0.522 | 0.888 | 0.688 | 0.667 | 0.524 | 0.441 | 0.402 | 0.429 | 0.378 | 1 | 0.863 | 0.857 | 0.549 | 0.449 | 0.398 | 0.35 | 0.372
SK-MES-1 | 1.05 | 0.885 | 0.69 | 0.918 | 1.11 | 0.981 | 0.97 | 0.944 | 0.54 | 0.485 | 0.481 | 0.548 | 1.12 | 0.962 | 0.822 | 0.849 | 0.679 | 0.546 | 0.594 | 0.348
SW 1573 | 0.87 | 0.801 | 0.717 | 0.767 | 0.887 | 0.771 | 0.626 | 0.738 | 0.677 | 0.6 | 0.53 | 0.539 | 0.948 | 0.791 | 0.706 | 0.638 | 0.543 | 0.449 | 0.441 | 0.106
UMC-11 | 0.499 | 0.477 | 0.538 | 0.414 | 1.09 | 0.986 | 1.03 | 0.959 | 0.745 | 0.706 | 0.59 | 0.62 | 0.845 | 0.763 | 0.814 | 0.562 | 0.395 | 0.37 | 0.35 | 0.458
